# Patent US12060588B2, “Methods of editing DNA methylation” (Whitehead Institute for Biomedical Research, priority 2016, dated 2024)
# How the values were obtained:
# HEK293T cells = assay: Nuclear-cytoplasmic localization of dCas9-Tet1 constructs with or without gRNA; assay type: cell-based; conditions: for induction index (nuclear-cytoplasmic ratio with sgRNA normalized to that without sgRNA): HEK293T cells
# Description: FIGS. 8A-8E depict a modified CRISPR system for editing 5-cytosine DNA methylation in the mammalian genome. FIG. 8A depicts design of dCas9-effector constructs with nuclear localization signal (NLS) located at different positions, and guide RNA (gRNA) or enhanced guide RNA (E-gRNA) with CMV-driven puro-T2A-Cherry cassette. Ub: human Ubiquitin C promoter. […] FIG. 8C provides comparison of the cellular localization of dCas9-NLS-Tet1 and NLS-dCas9-NLS-Tet1 in HEK293T cells with or without co-expression of a gRNA or E-gNRA targeting the same position in the MyoD locus. […] Co-expression of either gRNA or E-gRNA induced cytoplasm-to-nucleus translocation of these two proteins. Stained in green for dCas9, red for Cherry and blue for DAPI in the merged images. The red dashed lines in the first two panels indicate the cross section of the images for GFP intensity quantification. Scale bar: 10 um. FIG. 8D provides quantification of the nuclear-cytoplasmic ratio of dCas9-NLS-Tet1 and NLS-dCas9-NLS-Tet1 in HEK293T cells in the absence or presence of a gRNA, or an E-gNRA in a Box and Whiskers plot. Average dCas9 intensity of cytoplasmic and nuclear domain along a cross-sectional line as illustrated in C was used for the quantification. “+” denotes mean value of the 20 data points in each group; the boxes indicate the extreme data points (top and bottom bars), the 25-75% interval (box), and the median (central line). […] We reasoned that the combination with the highest induction index would result in the best signal-to-noise ratio for targeted DNA methylation editing.
# To achieve targeted editing of DNA methylation, we fused dCas9 with enzymes in the methylation/demethylation pathway (FIG. 1A). […] Both gRNA constructs contain a puro selection cassette and a Cherry fluorescence protein cassette driven by an independent CMV promoter that allows for Fluorescence Activated Cell Sorting (FACS) of gRNA-expressing cells after lentiviral transduction (FIG. 8A). […]
# [1] = tested on: off-target binding sites at Vac14, Tenm4, Vrk1 and Gm42619 loci; assay: Bisulfite sequencing of off-target binding sites; assay type: cell-based, mouse
# [2] = tested on: MyoD distal enhancer (DMR-5) / MyoD expression; assay: MyoD expression in C3H10T1/2 cells (RT-qPCR); assay type: cell-based, mouse
substance,measurement,setting,value
"dCas9-Tet1: catalytically inactive Cas9 (dCas9) fused through NLS to the Tet1 catalytic domain, SEQ ID NO: 159; lentivirally expressed with gRNAs",induction index (nuclear-cytoplasmic ratio with sgRNA normalized to that without sgRNA),HEK293T cells; co-expression of E-gRNA targeting the MyoD locus,3.22 folds
same,induction index (nuclear-cytoplasmic ratio with sgRNA normalized to that without sgRNA),HEK293T cells; co-expression of gRNA targeting the MyoD locus,3.17 folds
same,cellular localization,"HEK293T cells; in the absence of sgRNAs, transfected HEK293T cells",predominantly excluded from the nuclear compartment
same,change in methylation level at second and third strongest (off-target) binding sites,[1],only marginal change in methylation level
same,induction of MyoD expression,[2]; MyoD DMR-5 gRNAs combined with 5-Aza treatment (48-hour),higher induction of MyoD
same,induction of MyoD expression,"[2]; with 4 gRNAs targeting DMR-5, C3H10T1/2 cells, 2 days, Cherry positive sorted",3 fold
